The record followed here is ChEMBL document CHEMBL3046126, “Synthesis and Herbicidal Activity of New Oxazolidinedione Derivatives” (J Pestic Sci, 1999).

The subject of data set [1] is Oryza sativa. The data set can be described thus: Pre-emergence phytotoxicity against Oryza sativa cv. Koshihikari (rice) assessed as phytotoxic crop injury visual ratings at 25 g ai/ha measured after 14 days post treatment under flooded conditions. Format: organism-based. As to conditions: in vivo, other, 336 h.
Data set [2] can be described thus: Selectivity index, ratio of ED10 for Oryza sativa to ED90 for Echinochloa oryzicola by pre-emergence exposure method.
Data set [3] deals with Lindernia procumbens. As to the kind of experiment: Pre-emergence herbicidal activity against Lindernia procumbens assessed as phytotoxic weed control visual ratings at 25 g ai/ha measured after 14 days post treatment under flooded conditions. The class given is functional.
Data set [4] has as its system Echinochloa oryzicola. As to the kind of experiment: Pre-emergence herbicidal activity against Echinochloa oryzicola assessed as phytotoxic weed control visual ratings at 25 g ai/ha measured after 14 days post treatment under flooded conditions. The class given is functional.
Data set [5] relates to Echinochloa oryzicola. As to the kind of experiment: Post-emergence herbicidal activity against Echinochloa oryzicola assessed as phytotoxic weed control visual ratings measured after 14 days post treatment. Format: functional.
Data set [6] deals with Oryza sativa. The data set can be described thus: Pre-emergence phytotoxicity against Oryza sativa cv. Koshihikari (rice) assessed as phytotoxic crop injury visual ratings measured after 14 days post treatment. The class given is organism-based. As to conditions: in vivo, 336 h.
The test system of data set [7] is Pontederia vaginalis. As to the kind of experiment: Pre-emergence herbicidal activity against Monochoria vaginalis assessed as phytotoxic weed control visual ratings at 25 g ai/ha measured after 14 days post treatment under flooded conditions. The class given is functional.
The test system of data set [8] is Elatine triandra. The data set can be described thus: Pre-emergence herbicidal activity against Elatine triandra assessed as phytotoxic weed control visual ratings at 25 g ai/ha measured after 14 days post treatment under flooded conditions. The class given is functional.
For the next data set, the system named is Echinochloa crus-galli. The data set can be described thus: Pre-emergence herbicidal activity against Echinochloa crus-galli (barnyard grass) assessed as phytotoxic weed control visual ratings at 500 g ai/ha measured after 14 days post treatment under upland field conditions. The class given is functional.
For data set [9], the system named is Cyperus difformis. The data set can be described thus: Pre-emergence herbicidal activity against Cyperus difformis assessed as phytotoxic weed control visual ratings at 25 g ai/ha measured after 14 days post treatment under flooded conditions. The class given is functional.
Data set [10] concerns Schoenoplectiella juncoides. The data set can be described thus: Pre-emergence herbicidal activity against Schoenoplectiella juncoides assessed as phytotoxic weed control visual ratings at 25 g ai/ha measured after 14 days post treatment under flooded conditions. The class given is functional.
In data set [11] the test system is Oryza sativa. The data set can be described thus: Post-emergence phytotoxicity against Oryza sativa cv. Koshihikari (rice) assessed as phytotoxic crop injury visual ratings measured after 14 days post treatment. Format: organism-based. The note with it: in vivo, 336 h.
A short description of data set [12]: Selectivity index, ratio of ED10 for Oryza sativa to ED90 for Echinochloa oryzicola by post-emergence exposure method.
Data set [13] deals with Echinochloa oryzicola. The data set can be described thus: Pre-emergence herbicidal activity against Echinochloa oryzicola assessed as phytotoxic weed control visual ratings measured after 14 days post treatment. Format: functional.
Data set [14] relates to Rotala indica. The data set can be described thus: Pre-emergence herbicidal activity against Rotala indica assessed as phytotoxic weed control visual ratings at 25 g ai/ha measured after 14 days post treatment under flooded conditions. The class given is functional.
A further data set concerns Zea mays. The data set can be described thus: Pre-emergence phytotoxicity against Zea mays (maize) assessed as phytotoxic crop injury visual ratings at 500 g ai/ha measured after 14 days post treatment under upland field conditions. Format: organism-based. The note with it: in vivo, other, 336 h.
The test system of another data set is Digitaria ciliaris. As to the kind of experiment: Pre-emergence herbicidal activity against Digitaria ciliaris assessed as phytotoxic weed control visual ratings at 500 g ai/ha measured after 14 days post treatment under upland field conditions. Format: functional.
The next data set has as its system Chenopodium album. As to the kind of experiment: Pre-emergence herbicidal activity against Chenopodium album assessed as phytotoxic weed control visual ratings at 500 g ai/ha measured after 14 days post treatment under upland field conditions. Format: functional.
The next data set deals with Amaranthus viridis. As to the kind of experiment: Pre-emergence herbicidal activity against Amaranthus viridis assessed as phytotoxic weed control visual ratings at 500 g ai/ha measured after 14 days post treatment under upland field conditions. The class given is functional.
Data set [15] deals with Echinochloa oryzicola. As to the kind of experiment: Pre-emergence herbicidal activity against Echinochloa oryzicola assessed as phytotoxic weed control visual ratings at 1.25 kg ai/ha measured after 14 days post treatment under flooded conditions. Format: functional.
Data set [16] relates to Cyperus difformis. As to the kind of experiment: Pre-emergence herbicidal activity against Cyperus difformis assessed as phytotoxic weed control visual ratings at 1.25 kg ai/ha measured after 14 days post treatment under flooded conditions. Format: functional.
The test system of data set [17] is Pontederia vaginalis. The data set can be described thus: Pre-emergence herbicidal activity against Monochoria vaginalis assessed as phytotoxic weed control visual ratings at 1.25 kg ai/ha measured after 14 days post treatment under flooded conditions. The class given is functional.
Data set [18] has as its system Rotala indica. The data set can be described thus: Pre-emergence herbicidal activity against Rotala indica assessed as phytotoxic weed control visual ratings at 1.25 kg ai/ha measured after 14 days post treatment under flooded conditions. The class given is functional.
For data set [19], the system named is Oryza sativa. The data set can be described thus: Pre-emergence phytotoxicity against Oryza sativa cv. Koshihikari (rice) assessed as phytotoxic crop injury visual ratings at 1.25 kg ai/ha measured after 14 days post treatment under flooded conditions. Format: organism-based. The note with it: in vivo, other, 336 h.
Data set [20] concerns Elatine triandra. The data set can be described thus: Pre-emergence herbicidal activity against Elatine triandra assessed as phytotoxic weed control visual ratings at 1.25 kg ai/ha measured after 14 days post treatment under flooded conditions. Format: functional.
Data set [21] deals with Lindernia procumbens. As to the kind of experiment: Pre-emergence herbicidal activity against Lindernia procumbens assessed as phytotoxic weed control visual ratings at 1.25 kg ai/ha measured after 14 days post treatment under flooded conditions. Format: functional.
Data set [22] concerns Schoenoplectiella juncoides. The data set can be described thus: Pre-emergence herbicidal activity against Schoenoplectiella juncoides assessed as phytotoxic weed control visual ratings at 1.25 kg ai/ha measured after 14 days post treatment under flooded conditions. Format: functional.

On to `CC(C)=C1OC(=O)N(c2cc(OC3CCCCC3)c(Cl)cc2F)C1=O`, for which the Phytotoxicity turned out to be 0% in the data set on Oryza sativa [1]; 100% in the data set with Lindernia procumbens [3]; 100% with Echinochloa oryzicola [4]; 100% in the data set with Pontederia vaginalis [7]; 100% in the data set on Elatine triandra [8]; 10% in the data set with Echinochloa crus-galli. In addition, the Phytotoxicity in the data set with Cyperus difformis [9] is 100%; in [10], 80%; in the data set with Rotala indica [14] it was 100%; in the data set with Zea mays, 10%; in the data set on Digitaria ciliaris, 30%; with Chenopodium album, 20%. In addition, in the data set with Amaranthus viridis, the Phytotoxicity is listed as 30%. Also, the Selectivity Index in [2] and in [12] was 8 each time. For the same molecule, the ED90 with Echinochloa oryzicola [5] and in the data set with Echinochloa oryzicola [13] was 25 gAi/ha throughout. For the same molecule, the ED10 with Oryza sativa [6] and with Oryza sativa [11] was 200 gAi/ha throughout.
Regarding `C#CCSc1cc(N2C(=O)OC(=C(C)C)C2=O)c(F)cc1Cl`, the Phytotoxicity came out at 0% in the data set on Oryza sativa [1]; 100% in the data set with Lindernia procumbens [3]; 100% with Echinochloa oryzicola [4]; 100% with Pontederia vaginalis [7]; 100% in the data set on Elatine triandra [8]; 50% in the data set on Echinochloa crus-galli. In addition, the Phytotoxicity came out at 100% with Cyperus difformis [9]; 100% in data set [10]; 100% in the data set on Rotala indica [14]; 0% in the data set with Zea mays; 30% with Digitaria ciliaris; 100% in the data set with Chenopodium album. Also, the Phytotoxicity in the data set with Amaranthus viridis came to 100%. Besides, the values for the Selectivity Index in [2] and in data set [12] were 4 and 2, respectively. For the same molecule, the results for the ED90 in the data set with Echinochloa oryzicola [5] and with Echinochloa oryzicola [13] were 100 gAi/ha and 12.5 gAi/ha, respectively. Further, the ED10 stood at 50 gAi/ha in the data set with Oryza sativa [6] and 200 gAi/ha with Oryza sativa [11].
For `O=C1OC(=C2CCCCC2)C(=O)N1c1ccc(Cl)cc1`, the Phytotoxicity in the data set on Echinochloa oryzicola [15] amounted to 10%; with Cyperus difformis [16], 100%; with Pontederia vaginalis [17], 10%; in the data set on Rotala indica [18], 100%; with Oryza sativa [19] it was 0%; in the data set on Elatine triandra [20], 100%. The Phytotoxicity in the data set with Lindernia procumbens [21] is 100%; in data set [22] it was 80%.
With `CC/C(C)=C1/OC(=O)N(c2ccc(Cl)cc2)C1=O`, the Phytotoxicity turned out to be 100% with Echinochloa oryzicola [15]; 100% with Cyperus difformis [16]; 100% in the data set with Pontederia vaginalis [17]; 100% in the data set with Rotala indica [18]; 20% in the data set with Oryza sativa [19]; 100% with Elatine triandra [20]. In addition, the Phytotoxicity (with Lindernia procumbens [21]; in data set [22]) was 100% throughout.
Consider `CC(C)=C1OC(=O)N(c2cc(OC3CCCC3)c(Cl)cc2F)C1=O` [PENTOXAZONE], for which the Phytotoxicity is on record as 0% in the data set with Oryza sativa [1]; 100% in the data set on Lindernia procumbens [3]; 100% with Echinochloa oryzicola [4]; 100% in the data set on Pontederia vaginalis [7]; 100% with Elatine triandra [8]; 60% with Echinochloa crus-galli. For the same molecule, the Phytotoxicity came to 100% in the data set with Cyperus difformis [9]; 100% in data set [10]; 100% in the data set on Rotala indica [14]; 10% in the data set with Zea mays; 90% in the data set with Digitaria ciliaris; 50% with Chenopodium album. In addition, in the data set with Amaranthus viridis, the Phytotoxicity was determined as 100%. Also, the Selectivity Index in [2] and in data set [12] was 16 each time. In addition, the values for the ED90 in the data set on Echinochloa oryzicola [5] and in the data set on Echinochloa oryzicola [13] were 25 gAi/ha and 12.5 gAi/ha, respectively. In addition, the ED10 in the data set with Oryza sativa [6] came out at 200 gAi/ha; in the data set with Oryza sativa [11] it was 400 gAi/ha.
Regarding `CC(C)=C1OC(=O)N(c2ccc(F)cc2)C1=O`, the Phytotoxicity was found to be 10% in the data set on Echinochloa oryzicola [15]; 100% in the data set on Cyperus difformis [16]; 40% in the data set on Pontederia vaginalis [17]; 40% in the data set with Rotala indica [18]; 0% in the data set with Oryza sativa [19]; 40% in the data set on Elatine triandra [20]. Further, the Phytotoxicity in the data set with Lindernia procumbens [21] was determined as 40%; in data set [22], 0%.
On to `CCC(CC)=C1OC(=O)N(c2ccc(Cl)cc2)C1=O`, for which the Phytotoxicity in the data set on Echinochloa oryzicola [15] was 10%; in the data set on Cyperus difformis [16], 100%; in the data set on Pontederia vaginalis [17], 90%; with Rotala indica [18], 100%; in the data set on Oryza sativa [19] it was 0%; in the data set with Elatine triandra [20] it was 100%. Moreover, the Phytotoxicity with Lindernia procumbens [21] was found to be 100%; in data set [22], 30%.
For the molecule `C=CCOc1cc(N2C(=O)OC(=C(C)C)C2=O)c(F)cc1Cl`, the Phytotoxicity was 0% with Oryza sativa [1]; 100% in the data set with Lindernia procumbens [3]; 80% in the data set with Echinochloa oryzicola [4]; 100% in the data set on Pontederia vaginalis [7]; 100% in the data set with Elatine triandra [8]; 30% in the data set with Echinochloa crus-galli. For the same molecule, the Phytotoxicity in the data set on Cyperus difformis [9] is listed as 100%; in data set [10], 90%; in the data set with Rotala indica [14], 100%; in the data set on Zea mays it was 10%; with Digitaria ciliaris, 90%; in the data set with Chenopodium album it was 70%. Further, in the data set on Amaranthus viridis, the Phytotoxicity was found to be 80%. Also, the Selectivity Index in data set [2] and in data set [12] was 1 throughout. The ED90 with Echinochloa oryzicola [5] stood at 100 gAi/ha; with Echinochloa oryzicola [13], 50 gAi/ha. Also, the ED10 with Oryza sativa [6] came out at 50 gAi/ha; in the data set with Oryza sativa [11] it was 100 gAi/ha.
Regarding `CC(C)=C1OC(=O)N(c2cc(OC(C)C)c(Cl)cc2F)C1=O`, the Phytotoxicity was 0% with Oryza sativa [1]; 100% in the data set with Lindernia procumbens [3]; 100% in the data set with Echinochloa oryzicola [4]; 100% with Pontederia vaginalis [7]; 100% in the data set with Elatine triandra [8]; 90% with Echinochloa crus-galli. The Phytotoxicity in the data set with Cyperus difformis [9] stood at 100%; in data set [10], 90%; with Rotala indica [14] it was 100%; in the data set with Zea mays, 10%; with Digitaria ciliaris it was 100%; in the data set with Chenopodium album, 100%. Further, the Phytotoxicity in the data set on Amaranthus viridis stood at 100%. Besides, the Selectivity Index worked out at 4 in [2] and 6 in [12]. For the same molecule, the ED90 in the data set on Echinochloa oryzicola [5] and in the data set on Echinochloa oryzicola [13] was 25 gAi/ha each time. Also, the values for the ED10 in the data set with Oryza sativa [6] and with Oryza sativa [11] were 100 gAi/ha and 150 gAi/ha, respectively.
For `CC/C(C)=C1/OC(=O)N(c2ccc(F)cc2)C1=O`, the Phytotoxicity is on record as 10% in the data set on Echinochloa oryzicola [15]; 100% with Cyperus difformis [16]; 100% in the data set on Pontederia vaginalis [17]; 100% in the data set on Rotala indica [18]; 0% in the data set with Oryza sativa [19]; 100% in the data set with Elatine triandra [20]. In addition, the Phytotoxicity stood at 100% with Lindernia procumbens [21] and 60% in data set [22].
Regarding `CCCC/C(C)=C1/OC(=O)N(c2ccc(Cl)cc2)C1=O`, the Phytotoxicity in the data set with Echinochloa oryzicola [15] came out at 40%; with Cyperus difformis [16] it was 100%; in the data set with Pontederia vaginalis [17], 100%; with Rotala indica [18], 100%; in the data set on Oryza sativa [19] it was 10%; with Elatine triandra [20], 100%. Further, the Phytotoxicity (in the data set on Lindernia procumbens [21]; in data set [22]) was 100% in each case.
